We go through 19 compounds from patent publication US11548900B2, “Oxazino-quinazoline and oxazino-quinoline type compound, preparation method and uses thereof” (BEIJING SCITECH-MQ PHARMACEUTICALS LIMITED, priority 2018, dated 2023).

Structures are written as SMILES. Where only a bound is given, the exact number is not on record here.

Test [1] deals with HER2 kinase (Homo sapiens (Human), UniProt P04626). Put plainly: Inhibition of HER2 kinase activity (ULight-labeled PolyGT substrate). The note with it: HER2 kinase 10 nM, ATP 10 μM, 2 hours. Format: biochemical. On the procedure: (§1) The assay for the inhibition of EGFR and HER2 kinase activity by small molecular compounds was carried out using the method as follows:
(§2) 1) Dilution of the compounds
(§3) In a 96-well plate a, the compounds were diluted with DMSO using a 3-fold gradient dilution to form 11 concentrations, the 12th concentration is pure DMSO (as a positive control); and in a new 96-well plate b the above solutions were diluted 25 times with ultrapure water (DMSO concentration is 4%).
(§4) 2) Transferring the compounds to 384-well plate
(§5) The compound solutions diluted with ultrapure water in the 96-well plate b above was transferred to the corresponding wells of a 384-well plate in duplicate.
(§6) 3) Addition of 4×kinase solution: 2.5 μl of the above 4× kinase solution was taken using multichannel pipette and added to the corresponding reaction wells of the 384-well plate, mixed well and pre-reacted at room temperature for 5 minutes.
(§7) 4) Addition of 2×substrate/ATP mixed solution: 5 μl of the above 2×substrate/ATP mixed solution was taken using multichannel pipette and added to the corresponding reaction wells of the 384-well plate.
(§8) 5) Negative control: negative control wells were set in the 384-well plate, and 2.5 μl 4×substrate, 2.5 μl 4×enzyme solution, 2.5 μl 1×Kinase Assay Buffer and 2.5 μl ultrapure water containing 4% DMSO were added to each well.
(§9) 6) Mixed by centrifugation and kept at room temperature for 2 hours in the dark.
(§10) 7) Termination of the enzymatic reaction:
(§11) 5 μl of the above 4× stop solution was pipetted to the corresponding wells of the 384-well plate, centrifuged and mixed, and reacted at room temperature for 5 minutes.
(§12) 5 μl of the above 4× detection solution was pipetted into the corresponding wells of the 384-well plate, centrifuged and mixed, and reacted at room temperature for 1 hour.
(§13) 9) The 384-well plate was placed into a microplate reader and the signal was detected using the corresponding program.
(§14) 10) IC50 analysis: Well reading value=10000*EU665 value/EU615 value Inhibition rate=(reading value of positive control well−reading value of experimental well)/(reading value of positive control well−reading value of negative control well)*100% Corresponding IC50s can be calculated by entering the drug concentrations and the corresponding inhibition rates into GraphPad Prism 5.
Conditions of experiment for screening HER2 kinase inhibitory molecules:
The final concentration of HER2 kinase in the reaction system is 10 nM, the final concentration of ATP is 10 μM, the final concentration of substrate ULight™-labeled PolyGT is 100 nM, and the enzymatic reaction time is 2 hours.
(§15) The maximum final concentration of the compound in the reaction system is 2.5 μM, 11 concentrations were made with a 3-fold gradient dilution, and the minimal final concentration is 0.042 nM. The final concentration of DMSO is 1%.

Test [2] deals with EGFR kinase (Homo sapiens (Human), UniProt P00533). Put plainly: Inhibition of EGFR kinase activity (ULight-labeled JAK-1 (Tyr1023) peptide substrate). The format is biochemical. As to conditions: EGFR kinase 0.35 nM, ATP 150 μM, 2 hours. On the procedure: as §1, §2, §3, §4, §5, §6, §7, §8, §9, §10, §11, §12, §13, §14
Conditions of experiment for screening EGFR kinase inhibitory molecules:
The final concentration of EGFR kinase in the reaction system is 0.35 nM, and the final concentration of ATP is 150 μM, the final concentration of substrate ULight™-labeled JAK-1 (Tyr1023) Peptide is 100 nM, and the enzymatic reaction time is 2 hours.
as §15

The test system of test [3] is BT474 cells. Put plainly: Inhibition of cell proliferation, BT474 (CCK-8, 72 h). Format: cell-based. The note with it: Homo sapiens, BT-474, 72 h incubation. The method, then:
The assay for the inhibition of cell proliferation by small molecular compounds was carried out using the method as follows:
1. 600 μL pancreatin was added to a T75 cell culture flask, which was digested in a 37° C. incubator for about 1 min before 5 mL of DMEM complete culture solution was added, blew evenly, transferred to a 15 mL centrifuge tube, and centrifuged at 1000 rpm for 4 min;
2. The supernatant was removed and 5 mL DMEM complete culture solution was added, blew evenly, and 10 μL cell suspension was taken and mixed with 10 μL 0.4% Trypan Blue, and counted using a cell counter;
3. BT474 and HCC827 cell lines were seeded in 96-well plates at a cell density of 10,000 and 3000 cells/well/80 μL, respectively, and cultured overnight. Only sterile water was added to the 36 wells on the periphery of the 96-well plate without adding cells, and only the 60 wells in the center of the 96-well plate were used for cell assays and controls;
4. Dilution of compounds: the compounds were diluted with a 3-fold dilution to make 10 concentrations in total with an initial concentration of 10 mM;
5. 20 μL of different compounds with different concentrations were added to each well, and 20 μL of complete culture solution was added to the remaining wells. The final concentration of DMSO in each well is 0.25%;
6. After 72 h of incubation, 10 μL CCK-8 reagent was added to each well, and incubated at 37° C. for 1-2 h; and the OD value was read at 450 nm;
7. Cell survival rate (%)=[(As−Ab)/(Ac−Ab)]*100%
As: Assay well (medium containing cell, CCK-8, compound)
Ac: Control well (medium containing cell, CCK-8)
Ab: Blank well (CCK-8, medium without cell and compound)
8. The value was imported into Graphpad Prism5 software for the calculation of IC50s (compound concentration at which 50% maximum survival rate is observed).

Chain of HER2 kinase (P04626 23-1255): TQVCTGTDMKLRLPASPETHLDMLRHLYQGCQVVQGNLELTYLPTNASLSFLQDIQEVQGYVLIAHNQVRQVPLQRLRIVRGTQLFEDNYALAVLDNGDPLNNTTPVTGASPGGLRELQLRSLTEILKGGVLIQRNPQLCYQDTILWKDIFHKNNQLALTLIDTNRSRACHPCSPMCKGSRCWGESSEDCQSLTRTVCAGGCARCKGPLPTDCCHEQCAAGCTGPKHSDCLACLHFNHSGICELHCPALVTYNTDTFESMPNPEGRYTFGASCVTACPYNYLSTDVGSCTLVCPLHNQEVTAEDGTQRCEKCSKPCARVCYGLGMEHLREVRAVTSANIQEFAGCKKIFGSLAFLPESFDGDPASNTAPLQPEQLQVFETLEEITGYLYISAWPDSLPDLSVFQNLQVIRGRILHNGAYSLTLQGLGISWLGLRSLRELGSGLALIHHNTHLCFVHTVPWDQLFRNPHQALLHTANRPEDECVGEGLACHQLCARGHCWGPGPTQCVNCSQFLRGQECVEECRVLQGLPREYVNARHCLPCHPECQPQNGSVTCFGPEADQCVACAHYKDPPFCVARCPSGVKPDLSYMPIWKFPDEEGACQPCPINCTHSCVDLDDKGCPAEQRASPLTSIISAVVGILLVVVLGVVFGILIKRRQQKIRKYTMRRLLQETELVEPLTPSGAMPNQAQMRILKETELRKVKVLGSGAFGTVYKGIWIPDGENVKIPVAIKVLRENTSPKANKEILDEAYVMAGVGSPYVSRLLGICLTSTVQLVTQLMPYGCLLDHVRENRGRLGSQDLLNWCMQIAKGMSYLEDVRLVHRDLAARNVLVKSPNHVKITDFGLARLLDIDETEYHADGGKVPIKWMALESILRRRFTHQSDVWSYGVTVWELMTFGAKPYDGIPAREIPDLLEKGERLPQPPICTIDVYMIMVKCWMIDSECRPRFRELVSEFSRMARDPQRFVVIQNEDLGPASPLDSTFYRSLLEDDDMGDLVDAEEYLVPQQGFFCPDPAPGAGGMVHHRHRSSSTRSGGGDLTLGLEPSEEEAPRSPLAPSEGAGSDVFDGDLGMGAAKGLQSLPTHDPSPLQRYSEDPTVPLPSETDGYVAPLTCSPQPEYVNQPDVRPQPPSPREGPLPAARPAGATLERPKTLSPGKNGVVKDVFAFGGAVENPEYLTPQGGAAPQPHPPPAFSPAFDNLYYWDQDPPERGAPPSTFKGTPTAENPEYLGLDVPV
Chain of EGFR kinase (P00533 25-1210): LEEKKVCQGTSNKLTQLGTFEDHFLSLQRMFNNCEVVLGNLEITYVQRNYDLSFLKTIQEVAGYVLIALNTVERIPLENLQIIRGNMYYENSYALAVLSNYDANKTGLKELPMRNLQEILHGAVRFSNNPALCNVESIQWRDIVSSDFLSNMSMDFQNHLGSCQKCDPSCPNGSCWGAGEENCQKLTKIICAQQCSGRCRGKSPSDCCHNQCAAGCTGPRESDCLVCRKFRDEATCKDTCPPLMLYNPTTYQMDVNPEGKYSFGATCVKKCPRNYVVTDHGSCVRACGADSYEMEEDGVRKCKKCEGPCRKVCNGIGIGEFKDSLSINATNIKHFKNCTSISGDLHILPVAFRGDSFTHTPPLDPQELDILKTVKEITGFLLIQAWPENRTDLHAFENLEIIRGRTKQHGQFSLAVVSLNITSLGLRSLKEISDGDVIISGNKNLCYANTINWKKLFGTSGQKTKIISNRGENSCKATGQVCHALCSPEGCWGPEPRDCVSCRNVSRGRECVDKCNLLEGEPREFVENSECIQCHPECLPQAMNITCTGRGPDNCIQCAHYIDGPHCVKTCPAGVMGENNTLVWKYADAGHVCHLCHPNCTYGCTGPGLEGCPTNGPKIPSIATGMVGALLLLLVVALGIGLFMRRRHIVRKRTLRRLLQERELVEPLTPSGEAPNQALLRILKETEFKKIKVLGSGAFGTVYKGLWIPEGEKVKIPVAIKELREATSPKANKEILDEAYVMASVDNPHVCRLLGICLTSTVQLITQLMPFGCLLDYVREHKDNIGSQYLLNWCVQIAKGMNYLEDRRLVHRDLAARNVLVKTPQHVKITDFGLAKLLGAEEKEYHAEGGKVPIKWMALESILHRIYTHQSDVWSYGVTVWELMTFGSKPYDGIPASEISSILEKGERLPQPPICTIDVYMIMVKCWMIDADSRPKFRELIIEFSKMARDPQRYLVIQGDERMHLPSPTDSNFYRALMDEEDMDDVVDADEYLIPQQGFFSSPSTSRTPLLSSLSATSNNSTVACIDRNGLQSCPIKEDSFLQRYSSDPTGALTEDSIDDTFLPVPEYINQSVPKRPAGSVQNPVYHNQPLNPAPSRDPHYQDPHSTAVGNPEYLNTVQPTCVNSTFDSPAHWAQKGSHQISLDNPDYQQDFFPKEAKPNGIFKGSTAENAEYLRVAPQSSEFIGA

Usually IC50 stands for the midpoint of a concentration-inhibition curve. Read a low IC50 as greater potency. For `C=CC(=O)N1CCOc2c1ccc1ncnc(Nc3ccc(Oc4ccccc4)cc3)c21` [Example 2, 1-(10-((4-phenoxyphenyl)amino)-2,3-dihydro-4H-[1,4]oxazino[2,3-f]quinazolin-4-yl)prop-2-en-1-one], the 50% inhibitory concentration (IC50) in test [1] and in test [2] was at most 50 nM in each case.

On to `C=CC(=O)N1CCOc2c1ccc1ncnc(Nc3ccc(OCc4cccc(F)c4)c(Cl)c3)c21` [Example 3], for which the IC50 in test [1] and in test [2] was at most 50 nM each time.

In the case of `C=CC(=O)N1CCOc2c1ccc1ncnc(Nc3ccc(Sc4ccc(F)cc4)cc3)c21` [Example 28, 1-(10-((4-((4-fluorophenyl)thio)phenyl)amino)-2,3-dihydro-4H-[1,4]oxazino[2,3-f]quinazolin-4-yl)prop-2-en-1-one], in test [1], the IC50 is at most 50 nM.

The compound `C=CC(=O)N1CCOc2c1ccc1ncnc(Nc3ccc(Oc4ccccc4)cc3F)c21` [Example 29, 1-(10-((2-fluoro-4-phenoxyphenyl)amino)-2,3-dihydro-4H-[1,4]oxazino[2,3-f]quinazolin-4-yl)prop-2-en-1-one] displayed an IC50 in test [1] of at most 50 nM.

Compound `C=CC(=O)N1CCOc2c1ccc1ncnc(Nc3ccc(Oc4ccccc4OCCN(C)C)cc3)c21` [Example 30, 1-(10-((4-(2-(2-(dimethylamino)ethoxy)phenoxy)phenyl)amino)-2,3-dihydro-4H-[1,4]oxazino[2,3-f]quinazolin-4-yl)prop-2-en-1-one] returned a 50% inhibitory concentration (IC50) in test [1] of at most 50 nM.

With `C=CC(=O)N1CCOc2c1ccc1ncnc(Nc3ccc(Oc4ccccc4OCCCN(C)C)cc3)c21` [Example 31, 1-(10-((4-(2-(3-(dimethylamino)propoxy)phenoxy)phenyl)amino)-2,3-dihydro-4H-[1,4]oxazino[2,3-f]quinazolin-4-yl)prop-2-en-1-one], in test [1], the IC50 lay in the range of 50 to 500 nM.

In test [1], `C=CC(=O)N1CCOc2c1ccc1ncnc(Nc3ccc(Oc4ccccc4OCCOC)cc3)c21` [Example 32, 1-(10-((4-(2-(2-methoxyethoxy)phenoxy)phenyl)amino)-2,3-dihydro-4H-[1,4]oxazino[2,3-f]quinazolin-4-yl)prop-2-en-1-one] returned a half-inhibitory concentration (IC50) of at most 50 nM.

Consider `C=CC(=O)N1CCOc2c1ccc1ncnc(Oc3ccc(Oc4ccc(Cl)cc4)cc3)c21` [Example 36, 1-(10-(4-(4-chlorophenoxy)phenoxy)-2,3-dihydro-4H-[1,4]oxazino[2,3-f]quinazolin-4-yl)prop-2-en-1-one], for which the IC50 in test [1] is at most 50 nM.

In turn, `C=CC(=O)N1CCOc2c1ccc1ncnc(Oc3ccc(Oc4cc(Cl)ccc4Cl)cc3)c21` [Example 38, 1-(10-(4-(2,5-dichlorophenoxy)phenoxy)-2,3-dihydro-4H-[1,4]oxazino[2,3-f]quinazolin-4-yl)prop-2-en-1-one] showed an IC50 in test [1] of at most 50 nM.

In turn, `O=C(/C=C/CN1CCCCC1)N1CCOc2c1ccc1ncnc(Nc3ccc(Oc4ccccc4)cc3F)c21` [Example 97, (E)-1-(10-((2-fluoro-4-phenoxyphenyl)amino)-2,3-dihydro-4H-[1,4]oxazino[2,3-f]quinazolin-4-yl)-4-(piperidin-1-yl)but-2-en-1-one] showed an IC50 in test [1] of at most 50 nM.

For the compound `O=C(/C=C/CN1CCCCC1)N1CCOc2c1ccc1ncnc(Nc3ccc(Oc4ccccc4)c(F)c3)c21` [Example 98, (E)-1-(10-((3-fluoro-4-phenoxyphenyl)amino)-2,3-dihydro-4H-[1,4]oxazino[2,3-f]quinazolin-4-yl)-4-(piperidin-1-yl)but-2-en-1-one], the IC50 in test [1] was at most 50 nM.

For `CN1CCC[C@@H]1/C=C/C(=O)N1CCOc2c1ccc1ncnc(Nc3ccc(OCc4ccccn4)c(Cl)c3)c21` [Example 114], the 50% inhibitory concentration (IC50) in test [1] and in test [3] was at most 50 nM throughout.

With `O=C(/C=C/CN1CCC(O)CC1)N1CCOc2c1ccc1ncnc(Nc3ccc(OCc4ccccn4)c(Cl)c3)c21` [Example 115, (E)-1-(10-((3-chloro-4-(pyridin-2-ylmethoxy)phenyl)amino)-2,3-dihydro-4H-[1,4]oxazino[2,3-f]quinazolin-4-yl)-4-(4-hydroxypiperidin-1-yl)but-2-en-1-one], the IC50 in test [1] and in test [3] was at most 50 nM each time.

Consider `O=C(/C=C/CN1CCC(CO)CC1)N1CCOc2c1ccc1ncnc(Nc3ccc(OCc4ccccn4)c(Cl)c3)c21` [Example 117, (E)-1-(10-((3-chloro-4-(pyridin-2-ylmethoxy)phenyl)amino)-2,3-dihydro-4H-[1,4]oxazino[2,3-f]quinazolin-4-yl)-4-(4-(hydroxymethyl)piperidin-1-yl)but-2-en-1-one], for which the IC50 in test [1] and in test [3] was at most 50 nM in each case.

As to `O=C(/C=C/CN1CCC(F)CC1)N1CCOc2c1ccc1ncnc(Nc3ccc(OCc4ccccn4)c(Cl)c3)c21` [Example 118, (E)-1-(10-((3-chloro-4-(pyridin-2-ylmethoxy)phenyl)amino)-2,3-dihydro-4H-[1,4]oxazino[2,3-f]quinazolin-4-yl)-4-(4-fluoropiperidin-1-yl)but-2-en-1-one], the 50% inhibitory concentration (IC50) in test [1] and in test [3] was at most 50 nM each time.

In the case of `CN(C/C=C/C(=O)N1CCOc2c1ccc1ncnc(Nc3ccc(OCc4ccccn4)c(Cl)c3)c21)CCCO` [Example 120, (E)-1-(10-((3-chloro-4-(pyridin-2-ylmethoxy)phenyl)amino)-2,3-dihydro-4H-[1,4]oxazino[2,3-f]quinazolin-4-yl)-4-((3-hydroxypropyl)(methyl)amino)but-2-en-1-one], the IC50 in test [1] and in test [3] was at most 50 nM in each case.

On to `C[C@H]1CN(C)CCN1C/C=C/C(=O)N1CCOc2c1ccc1ncnc(Nc3ccc(OCc4ccccn4)c(Cl)c3)c21` [Example 121, (S,E)-1-(10-((3-chloro-4-(pyridin-2-ylmethoxy)phenyl)amino)-2,3-dihydro-4H-[1,4]oxazino[2,3-f]quinazolin-4-yl)-4-(2,4-dimethylpiperazin-1-yl)but-2-en-1-one], for which the 50% inhibitory concentration (IC50) in test [1] and in test [3] was at most 50 nM each time.

`CN(C/C=C/C(=O)N1CCOc2c1ccc1ncnc(Nc3ccc(OCc4ccccn4)c(Cl)c3)c21)CCO` [Example 122, (E)-1-(10-((3-chloro-4-(pyridin-2-ylmethoxy)phenyl)amino)-2,3-dihydro-4H-[1,4]oxazino[2,3-f]quinazolin-4-yl)-4-((2-hydroxyethyl)(methyl)amino)but-2-en-1-one]: the IC50 in test [1] and in test [3] was at most 50 nM each time.

`C[C@@H]1CN(C)CCN1C/C=C/C(=O)N1CCOc2c1ccc1ncnc(Nc3ccc(OCc4ccccn4)c(Cl)c3)c21` [Example 123, (R,E)-1-(10-((3-chloro-4-(pyridin-2-ylmethoxy)phenyl)amino)-2,3-dihydro-4H-[1,4]oxazino[2,3-f]quinazolin-4-yl)-4-(2,4-dimethylpiperazin-1-yl)but-2-en-1-one]: the IC50 in test [1] and in test [3] was at most 50 nM throughout.
